The source of these data is ChEMBL document CHEMBL2046371, “Synthesis and study of cyclic pronucleotides of 5-fluoro-2'-deoxyuridine” (Bioorg Med Chem Lett, 2012).

In one assay the test system is A2780. The assay is described as follows: Cytotoxicity against human A2780 cells after 5 days by MTT assay. The format is functional, cell-based. Conditions: A2780, 120 h.
A short description of assay [1]: Cytotoxicity against thymidine kinase-deficient mouse LMTK cells after 5 days by MTT assay. The format is cell-based. Conditions: L-M(TK-), 120 h.

`COC(=O)[C@H](C)N[P@]1(=O)OC[C@H]2O[C@@H](n3cc(F)c(=O)[nH]c3=O)C[C@@H]2O1`: the IC50 worked out at 1.4 µM with A2780 and 60.7 µM in assay [1].
In the same order, the values of `COC(=O)[C@H](C)NP(=O)(OC[C@H]1O[C@@H](n2cc(F)c(=O)[nH]c2=O)C[C@@H]1O)Oc1ccccc1` (stereo not given in full) are 2.4 µM and 45.6 µM.
Turning to `COC(=O)[C@H](C)N[P@@]1(=O)OC[C@H]2O[C@@H](n3cc(F)c(=O)[nH]c3=O)C[C@@H]2O1`, the IC50 in the assay on A2780 came to 1.4 µM; in assay [1] it was 12.7 µM.
On to `O=c1[nH]c(=O)n([C@H]2C[C@H](O)[C@@H](CO)O2)cc1F` [FLOXURIDINE], for which the IC50 was 0.026 µM with A2780 and 4.5 µM in assay [1].
In the same order, the values of `COC(=O)CNP1(=O)OC[C@H]2O[C@@H](n3cc(F)c(=O)[nH]c3=O)C[C@@H]2O1` (stereo not given in full) are 0.55 µM and 141 µM.
